PubChem BioAssay AID504505 (The Scripps Research Institute Molecular Screening Center, 2011)

Test system: Abhydrolase domain-containing protein 11 (ABHD11), mouse
Experiment: cellular mouse ABHD11 activity inhibitors – cell-based, gel-based fluorescent ABPP, selectivity assay for LYPLA1 inhibitor project, late-stage follow-up (AID 504505)
Conditions: mouse cells, ABHD11 labeling, at 0.03 µM, hits give high values

CCC1CCCCN1C(=O)n1ncc(C(O)(c2ccccc2)c2ccccc2)n1 (stereo unspecified)
inhibition: 100%
